Results on 18 molecules are retold here after ChEMBL document CHEMBL1154363, “Heterocyclic 1,7-disubstituted indole sulfonamides are potent and selective human EP3 receptor antagonists” (Bioorg Med Chem Lett, 2009).

pIC50: −log10 of the molar value.

The target of series [1] is T1, Prostaglandin E2 receptor EP4 subtype (Homo sapiens, UniProt P35408). Briefly: Activity at EP4 receptor at 10 uM by FLIPR assay.
Series [2] deals with T2, Prostaglandin E2 receptor EP3 subtype (Homo sapiens) (UniProt P43115).
T2 sequence (whole entry): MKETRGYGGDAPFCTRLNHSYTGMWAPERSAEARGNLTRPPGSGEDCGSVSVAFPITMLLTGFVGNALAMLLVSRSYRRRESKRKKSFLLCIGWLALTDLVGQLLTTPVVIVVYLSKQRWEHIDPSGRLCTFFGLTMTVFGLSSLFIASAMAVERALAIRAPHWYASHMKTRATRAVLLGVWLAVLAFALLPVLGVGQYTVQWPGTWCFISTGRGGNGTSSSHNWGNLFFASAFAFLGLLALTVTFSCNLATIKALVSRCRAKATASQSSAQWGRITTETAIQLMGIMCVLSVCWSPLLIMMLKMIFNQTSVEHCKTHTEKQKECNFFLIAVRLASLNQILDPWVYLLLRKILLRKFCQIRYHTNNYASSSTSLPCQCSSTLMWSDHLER
Briefly: Displacement of [3H]PGE2 from human EP3 receptor in presence of 10% human serum.

For series [3], the target named is T3, Thromboxane A2 receptor (Homo sapiens) (UniProt P21731).
T3 sequence (whole entry): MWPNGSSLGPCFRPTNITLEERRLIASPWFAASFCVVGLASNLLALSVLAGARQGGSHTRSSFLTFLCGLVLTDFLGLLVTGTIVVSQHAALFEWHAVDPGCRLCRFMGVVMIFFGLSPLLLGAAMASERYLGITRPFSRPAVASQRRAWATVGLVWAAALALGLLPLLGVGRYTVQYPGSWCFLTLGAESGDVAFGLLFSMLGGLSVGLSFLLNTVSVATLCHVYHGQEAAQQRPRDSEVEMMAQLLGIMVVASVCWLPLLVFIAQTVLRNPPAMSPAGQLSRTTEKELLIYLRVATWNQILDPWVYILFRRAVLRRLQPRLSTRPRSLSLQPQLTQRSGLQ
Briefly: Activity at TP receptor at 10 uM by FLIPR assay.

Series [4] has as its target T4, Prostaglandin F2-alpha receptor (Homo sapiens, UniProt P43088). Briefly: Activity at FP receptor at 0.1 uM by FLIPR assay.
Series [5] has as its target T1, Prostaglandin E2 receptor EP4 subtype. Briefly: Activity at EP4 receptor at 0.1 uM by FLIPR assay.
The target of series [6] is T3, Thromboxane A2 receptor (Homo sapiens). The experiment in a line: Activity at TP receptor at 1 uM by FLIPR assay.
For series [7], the target named is T4, Prostaglandin F2-alpha receptor. Briefly: Activity at FP receptor at 1 uM by FLIPR assay.
In series [8] the target is T5, Prostaglandin E2 receptor EP1 subtype (Homo sapiens) (UniProt P34995).
T5 sequence (whole entry): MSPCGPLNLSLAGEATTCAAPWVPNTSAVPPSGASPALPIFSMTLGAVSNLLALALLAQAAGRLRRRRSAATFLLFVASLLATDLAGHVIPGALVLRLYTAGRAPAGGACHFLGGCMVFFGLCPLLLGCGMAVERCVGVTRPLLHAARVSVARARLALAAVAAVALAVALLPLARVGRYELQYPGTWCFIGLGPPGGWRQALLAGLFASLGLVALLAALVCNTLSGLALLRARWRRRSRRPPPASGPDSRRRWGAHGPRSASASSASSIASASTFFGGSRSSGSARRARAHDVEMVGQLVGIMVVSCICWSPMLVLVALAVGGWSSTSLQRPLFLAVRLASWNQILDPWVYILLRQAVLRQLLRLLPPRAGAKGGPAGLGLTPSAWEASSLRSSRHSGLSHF
Briefly: Activity at EP1 receptor at 10 uM by FLIPR assay.

In series [9] the target is T1, Prostaglandin E2 receptor EP4 subtype. The experiment in a line: Activity at EP4 receptor at 1 uM by FLIPR assay.
Series [10] addresses T6, Prostaglandin E2 receptor EP3 subtype (Homo sapiens, UniProt P43115).
T6 sequence (P43115 whole entry): T2 sequence (whole entry)
The experiment in a line: Displacement of [3H]PGE2 from human EP3 receptor. For orientation: In a radioligand displacement assay an active substance lowers the binding of a labelled ligand.

The target of series [11] is T3, Thromboxane A2 receptor (Homo sapiens). Briefly: Activity at TP receptor at 0.1 uM by FLIPR assay.
For series [12], the target named is T5, Prostaglandin E2 receptor EP1 subtype (Homo sapiens). The experiment in a line: Activity at EP1 receptor at 1 uM by FLIPR assay.
In series [13] the target is T4, Prostaglandin F2-alpha receptor. The experiment in a line: Activity at FP receptor at 10 uM by FLIPR assay.
The target of series [14] is T5, Prostaglandin E2 receptor EP1 subtype (Homo sapiens). Briefly: Activity at EP1 receptor at 0.1 uM by FLIPR assay.
The next series concerns Platelet. The experiment in a line: Inhibition of PGE2/collagen-induced platelet aggregation rat platelets rich plasma. The format is functional.
Series [15] is described as follows: Metabolic stability in rat liver microsomes assessed as compound remaining after 30 mins. The format is ADME, Microsome. To be noted: read-out: Stability.

T4 sequence (P43088 whole entry): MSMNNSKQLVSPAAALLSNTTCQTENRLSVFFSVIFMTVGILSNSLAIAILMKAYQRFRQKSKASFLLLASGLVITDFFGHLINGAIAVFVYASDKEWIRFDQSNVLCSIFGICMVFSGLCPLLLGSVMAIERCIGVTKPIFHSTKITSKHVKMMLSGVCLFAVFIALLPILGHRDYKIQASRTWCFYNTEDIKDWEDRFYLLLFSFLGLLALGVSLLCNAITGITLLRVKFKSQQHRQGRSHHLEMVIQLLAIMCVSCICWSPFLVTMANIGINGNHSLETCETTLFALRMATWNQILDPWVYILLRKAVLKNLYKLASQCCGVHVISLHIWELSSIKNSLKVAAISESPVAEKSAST
T1 sequence (P35408 whole entry): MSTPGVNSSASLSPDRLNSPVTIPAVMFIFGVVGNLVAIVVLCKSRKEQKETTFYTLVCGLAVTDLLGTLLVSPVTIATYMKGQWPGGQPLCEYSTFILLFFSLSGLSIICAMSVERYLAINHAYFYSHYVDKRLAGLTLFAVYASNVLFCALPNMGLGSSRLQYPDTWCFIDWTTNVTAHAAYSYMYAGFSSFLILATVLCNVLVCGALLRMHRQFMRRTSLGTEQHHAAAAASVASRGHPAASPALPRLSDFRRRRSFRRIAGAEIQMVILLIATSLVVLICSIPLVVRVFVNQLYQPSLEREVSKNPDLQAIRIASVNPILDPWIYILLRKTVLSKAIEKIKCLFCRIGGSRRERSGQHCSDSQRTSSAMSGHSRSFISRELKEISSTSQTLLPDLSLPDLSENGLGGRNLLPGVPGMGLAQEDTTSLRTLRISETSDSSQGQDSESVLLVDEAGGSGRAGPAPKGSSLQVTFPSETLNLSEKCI

As for `Cc1cn(Cc2ccc(F)c(F)c2)c2c(-c3cc(NS(=O)(=O)c4ccc(F)c(F)c4F)no3)cc(F)cc12`, the Activity is 38% in series [1]; 70% in [3]; 3% in [4]; -8% in series [5]; 3% in series [6]; -11% in series [7]. In addition, the Activity in series [8] was 99%; in series [9], -3%; in series [11], 5%; in [12], 77%; in series [13], 99%; in series [14] it was 5%. The fold change (FC) in [2] came out at 103. The pIC50 in series [10] was 7.92.

In the case of `Cc1cn(Cc2ccc3ccccc3c2)c2c(-c3cc(NS(=O)(=O)c4cc(Cl)c(Cl)s4)no3)cc(F)cc12`, the Activity in series [1] is 10%; in [3], 7%; in series [4], -7%; in series [5], -9%; in series [6] it was -7%; in series [7], -4%. In addition, the Activity is 80% in series [8]; -9% in series [9]; -12% in series [11]; 0% in series [12]; 7% in series [13]; -10% in series [14]. For the same molecule, in series [2], the fold change (FC) worked out at 3.6. Further, the negative logarithm of the IC50 (pIC50) is 9.00 in series [10] and 5.49 with Platelet.

With `Cc1cn(Cc2ccc(Cl)cc2Cl)c2c(-c3nnc(NC(=O)c4ccc(F)c(F)c4)o3)cc(F)cc12`, the Activity was 62% in [1]; 64% in series [3]; 3% in series [4]; 9% in series [5]; -1% in series [6]; 15% in series [7]. The Activity in series [8] was 96%; in [9], 14%; in series [11], 11%; in series [12] it was 10%; in series [13] it was 66%; in [14], -7%. Further, the fold change (FC) in [2] was found to be 19.6. Moreover, the negative-log IC50 (pIC50) in series [10] is 6.18.

Molecule `Cc1cn(Cc2ccc(Cl)cc2Cl)c2c(-c3nnc(NC(=O)c4ccco4)o3)cc(F)cc12` gave a pIC50 in series [10] of 6.44.

Regarding `Cc1cn(Cc2ccc(Cl)cc2Cl)c2c(-c3nc(NS(=O)(=O)c4cc(Cl)c(Cl)s4)no3)cc(F)cc12`, the Activity in series [1] was 25%; in series [3] it was 98%; in [4] it was -4%; in [5] it was -21%; in [6], 5%; in series [7], -2%. The Activity in series [8] was 100%; in [9], -21%; in [11], 2%; in series [12] it was 74%; in [13] it was 30%; in [14] it was 5%. The fold change (FC) in [2] was 20.9. Also, the negative logarithm of the IC50 (pIC50) in series [10] was 7.62.

In the case of `Cc1cn(Cc2ccc(Cl)cc2Cl)c2c(-c3nnc(NC(=O)c4ccc(F)cc4F)o3)cc(F)cc12`, the negative logarithm of the IC50 (pIC50) in [10] is 5.99.

Take `Cc1cn(Cc2ccc(Cl)cc2Cl)c2c(-c3cc(NS(=O)(=O)c4ccc(Cl)c(Cl)c4)no3)cc(F)cc12`: the fold change (FC) in series [2] came out at 18. In addition, in [10], the negative logarithm of the IC50 (pIC50) was 9.00.

For the molecule `Cc1cn(Cc2ccc3ccccc3c2)c2c(-c3cc(NS(=O)(=O)c4cc(F)c(F)cc4F)no3)cc(F)cc12`, the Activity in series [1] is 9%; in series [3], 19%; in series [4], -3%; in series [5] it was -17%; in [6] it was -5%; in series [7], 3%. The Activity was 100% in series [8]; -17% in series [9]; -9% in series [11]; 29% in series [12]; 19% in series [13]; -2% in series [14]. The fold change (FC) in series [2] was determined as 2.3. The pIC50 in [10] was 8.10.

As to `Cc1cn(Cc2ccc(Cl)cc2Cl)c2c(-c3cc(NS(=O)(=O)c4cc(F)c(F)cc4F)no3)cc(F)cc12`, the fold change (FC) in [2] came to 3.3. This molecule also gave a pIC50 in series [10] of 8.52.

In the case of `Cc1cn(Cc2ccc3ccccc3c2)c2c(-c3cc(NS(=O)(=O)c4ccc(Cl)c(Cl)c4)no3)cc(F)cc12`, the Activity in [1] is 3%; in series [3] it was -13%; in series [4], -3%; in series [5] it was -29%; in series [6] it was -8%; in [7], -8%. Moreover, the Activity in series [8] is 16%; in [9] it was -15%; in series [11] it was 9%; in series [12], -7%; in series [13], -6%; in series [14] it was 2%. In [2], the fold change (FC) came out at 4.9. Also, in [10], the pIC50 was 7.96.

With `Cc1cn(Cc2ccc(Cl)cc2Cl)c2c(-c3nnc(NC(=O)c4ccc5c(c4)OC(F)(F)O5)o3)cc(F)cc12`, the fold change (FC) in [2] stood at 21.4. This molecule also gave a negative-log IC50 (pIC50) in series [10] of 6.61.

For the molecule `Cc1cn(Cc2ccc(F)c(F)c2)c2c(-c3cc(NS(=O)(=O)c4cc(Cl)c(Cl)s4)no3)cc(F)cc12`, the Activity in series [1] is 18%; in series [3] it was 11%; in [4] it was 8%; in series [5] it was 9%; in series [6], -3%; in [7], 18%. Besides, the Activity in series [8] was 52%; in [9] it was 11%; in series [11], 3%; in [12], -5%; in series [13] it was 31%; in [14], -8%. In series [2], the fold change (FC) is 24.2. The negative-log IC50 (pIC50) in series [10] was 7.23.

In the case of `Cc1cn(Cc2ccc3ccccc3c2)c2c(-c3cc(NS(=O)(=O)c4ccc(F)c(F)c4)no3)cc(F)cc12`, the Activity was -4% in series [1]; 12% in series [3]; -9% in [4]; -25% in series [5]; -2% in series [6]; 0% in series [7]. Besides, the Activity is 62% in [8]; -17% in [9]; 3% in series [11]; 9% in [12]; 6% in series [13]; -3% in series [14]. In [2], the fold change (FC) turned out to be 14.6. In addition, in series [15], the remaining at 0.5 h worked out at 9.9%. In series [10], this molecule had a negative-log IC50 (pIC50) of 9.00.

For the molecule `Cc1cn(Cc2ccc(Cl)cc2Cl)c2c(-c3ccc(NS(=O)(=O)c4cc(Cl)c(Cl)s4)nc3)cc(F)cc12`, in [2], the fold change (FC) came to 217. Also, in series [10], the pIC50 is 8.70.

In the case of `Cc1cn(Cc2ccc(F)cc2F)c2c(-c3cc(NS(C)(=O)=O)on3)cc(F)cc12`, the pIC50 in [10] is 4.75.

Consider `Cc1cn(Cc2ccc(Cl)cc2Cl)c2c(-c3nnc(NS(C)(=O)=O)o3)cc(F)cc12`, for which the fold change (FC) in series [2] stood at 199. Further, the negative logarithm of the IC50 (pIC50) in series [10] is 5.59.

Regarding `Cc1cn(Cc2ccc(F)c(F)c2)c2c(-c3cc(NS(=O)(=O)c4cc(Cl)c(Cl)s4)nn3C)cc(F)cc12`, the fold change (FC) in series [2] came to 1. The molecule also had a pIC50 in [10] of 5.70.

As for `Cc1cn(Cc2ccc(F)c(F)c2)c2c(-c3cc(NS(=O)(=O)c4ccc(F)c(F)c4)no3)cc(F)cc12`, the Activity amounted to 18% in [1]; 17% in series [3]; 15% in series [4]; 18% in [5]; 0% in [6]; 16% in [7]. Also, the Activity in series [8] is 99%; in series [9], 17%; in [11] it was 3%; in series [12] it was 11%; in [13], 21%; in series [14] it was -9%. Also, in series [2], the fold change (FC) amounted to 178. The same molecule gave a negative logarithm of the IC50 (pIC50) in series [10] of 7.36.

A word on the pIC50: it is −log10 of the IC50, conventionally taken in molar units.
